For this test, the system named is Adriamycin resistant strain 2780 AD cells of human ovarian cancer A2780 cells. Briefly: Potentiating effect on incorporation of 3H-vincristine into adriamycin-resistant cancer cells. The settings on record: 20 nM 3H-vincristine; for activity at 1 µg/mL / activity at 10 µg/mL: Homo sapiens, 2780AD, 2 h, control = 100, read-out: 3H-vincristine accumulation; for activity at 10 µg/mL: compound 10 μg/ml. In kind it is cell-based. The method, then: Potentiating Effect of the Compounds on Incorporation of Anticancer Drugs into Drug-resistant Cancer Cells
Adriamycin resistant strain 2780 AD cells of human ovarian cancer A2780 cells (A. M. Rogan et al., Science 224, 994-996, 1984) were suspended at a concentration of 1×10^6 /ml in RPMI-1640 medium supplemented with 5% fetal calf serum, and 1 ml of the cancer cell suspension was dispensed into each well of a multi-well culture plate (24 wells, […] in diameter) and then incubated at 37° C. in an atmosphere of 5% CO2. After 24 hours incubation, the medium in each well was replaced by 0.5 ml of RPMI-1640 medium supplemented containing 20 nM ^3 H-vincristine (1×10^4 dpm/pmol), 5% fetal calf serum and 10 mM Hepes buffer. Five microliters of a solution of the compound to be tested, which had been dissolved in DMSO and diluted with […] (at a concentration of 1.0 microgram/ml or 10.0 micrograms/ml), was added to each well and the incubation was continued at 37° C. in 5% CO2 for 2 hours. The resultant cells were washed in cold saline-phosphate buffer. In each well was added 0.5 ml of 0.2N NaOH, and the resulting cell suspension in each well was independently transferred into a vial and then heated in a water bath at 56° C. for 30-60 minutes to dissolve the cells. After adding 4 ml of acid aquazole 2, the amount of ^3 H-vincristine incorporated into the cells was determined by a fluid scintillation counter.

Consider `OC(COc1cccc2ncccc12)CN1CCC(C(c2ccccc2)c2ccccc2)CC1` (centres unmarked) [Example 14, 5-[3-(4-(Diphenylmethyl)piperidine-1-yl)-2-hydroxypropoxy]quinoline], for which the activity at 10 µg/mL is 871%. The activity at 1 µg/mL (compound 1 μg/ml) is 119%.
For the molecule `OC(COc1cccc2nc(Cl)ccc12)CN1CCC(C(O)(c2ccccc2)c2ccccc2)CC1` (centres unmarked) [Example 19, 5-[3-(4-(Diphenyl-hydroxymethyl)piperidine-1-yl)-2-hydroxypropoxy]-2-chloroquinoline], the activity at 10 µg/mL amounted to 524%. The activity at 1 µg/mL (compound 1 μg/ml) was 374%.
On to `Cc1ccc2ncccc2c1OCC(O)CN1CCN(C(c2ccccc2)c2ccccc2)CC1` (centres unmarked) [Example 23, 5-[3-(4-Diphenylmethylpiperazine-1-yl)-2-hydroxypropoxy]-6-methylguinoline], for which, where the note is “compound 1 μg/ml”, the activity at 1 µg/mL is 723%.
With `Cc1ccc(OCC(O)CN2CCN(C(c3ccccc3)c3ccccc3)CC2)c2cccnc12` (centres unmarked) [Example 24, 5-[3-(4-Diphenylmethylpiperazine-1-yl)-2-hydroxypropoxy]-8-methylquinoline], the activity at 10 µg/mL is 931%. In addition, the activity at 1 µg/mL (compound 1 μg/ml) turned out to be 146%.
Consider `COc1ccc(OCC(O)CN2CCN(C(c3ccccc3)c3ccccc3)CC2)c2cccnc12` (centres unmarked) [Example 25, 5-[3-(4-Diphenylmethylpiperazine-1-yl)-2-hydroxypropoxy]-8-methoxyquinoline], for which the activity at 1 µg/mL (compound 1 μg/ml) worked out at 858%.
As to `O=[N+]([O-])c1ccc(OCC(O)CN2CCN(C(c3ccccc3)c3ccccc3)CC2)c2cccnc12` (centres unmarked) [Example 26, 5-[3-(4-Diphenylmethylpiperazine-1-yl)-2-hydroxypropoxy]-8-nitroquinoline], the activity at 1 µg/mL (compound 1 μg/ml) stood at 177%.
With `OC(COc1ccc(Cl)c2ncccc12)CN1CCN(C(c2ccccc2)c2ccccc2)CC1` (centres unmarked) [Example 29, 5-[3-(4-Diphenylmethylpiperazine-1-yl)-2-hydroxypropoxy]-8-chloroquinoline], the activity at 1 µg/mL (compound 1 μg/ml) worked out at 246%.
Still for that read-out and setting: with `CN(CC(O)CN1CCN(C(c2ccccc2)c2ccccc2)CC1)c1cccc2ncccc12` (centres unmarked) [Example 30, N-[3-(4-Diphenylmethylpiperazine-1-yl)-2-hydroxypropyl]-N-methyl-5-quinolineamine] the figure was 597%.
`OC(CSc1cccc2ncccc12)CN1CCN(C(c2ccccc2)c2ccccc2)CC1` (centres unmarked) [Example 31, 5-[3-(4-Diphenylmethylpiperazine-1-yl)-2-hydroxypropylthio]quinoline]: the activity at 10 µg/mL was 799%. Under “compound 1 μg/ml, 2 hours, control = 100, 120 min”, the 3H-vincristine accumulation is 428%.
As for `c1ccc(C(c2ccccc2)N2CCN(CCCCOc3cccc4ncccc34)CC2)cc1` [Example 33, 5-[4-(4-Diphenylmethylpiperazine-1-yl)butoxy]quinoline], under “compound 1 μg/ml”, the activity at 1 µg/mL came to 447%.
For the molecule `CN(C(=O)CCN1CCN(C(c2ccccc2)c2ccccc2)CC1)c1cccc2ncccc12` [Example 37, 5-[N-Methyl-(3-(4-diphenylmethylpiperazine-1-yl)propionamido)]quinoline], the activity at 10 µg/mL stood at 1000%. In addition, the activity at 1 µg/mL (compound 1 μg/ml) is 549%.
Taken in the same sequence, the figures for `CN(C(=O)CCN1CCN(C2c3ccccc3CCc3ccccc32)CC1)c1cccc2ncccc12` [Example 38, 5-[N-methyl-(3-(4-dibenzosuberanylpiperazine-1-yl)-propionamide)]quinoline] were 819% and 378%.
`CC(=O)OC(CN1CCN(C(c2ccccc2)c2ccccc2)CC1)CN(C(C)=O)c1cccc2ncccc12` (centres unmarked) [Example 39, 5-[N-Acetyl-(2-acetoxy-3-(4-diphenylmethylpiperazine-1-yl)propylamino)]quinoline]: the activity at 10 µg/mL was found to be 908%. Where the note is “compound 1 μg/ml”, the activity at 1 µg/mL is 236%.
Take `CC(=O)N(CC(O)CN1CCN(C(c2ccccc2)c2ccccc2)CC1)c1cccc2ncccc12` (centres unmarked) [Example 40, 5-[N-Acetyl-(3-(4-diphenylmethylpiperazine-1-yl)-2-hydroxypropylamino)]quinoline]: where the note is “compound 1 μg/ml”, the activity at 1 µg/mL came out at 259%.
Same read-out and setting: the result for `OC(COc1cccc2cnccc12)CN1CCN(C(c2ccccc2)c2ccccc2)CC1` (centres unmarked) [Example 43, 5-[3-(4-Diphenylmethylpiperazine-1-yl)-2-hydroxypropoxy]isoquinoline] reads 531%.
With `OC(COc1cccc2cnccc12)CN1CCCN(C(c2ccccc2)c2ccccc2)CC1` (centres unmarked) [Example 45, 5-[3-(4-Diphenylmethylhomopiperazine-1-yl)-2-hydroxypropoxy]isoquinoline], the activity at 10 µg/mL came to 982%. Under “compound 1 μg/ml”, the activity at 1 µg/mL was 307%.
Regarding `OC(COc1ccnc2ccccc12)CN1CCN(C(c2ccccc2)c2ccccc2)CC1` (centres unmarked) [Example 46, 4-[3-(4-Diphenylmethylpiperazine-1-yl)-2-hydroxypropoxy]quinoline], the activity at 10 µg/mL is 987%. Also, where the note is “compound 1 μg/ml”, the activity at 1 µg/mL came to 142%.
For `OC(COc1cccc2ccncc12)CN1CCN(C(c2ccccc2)c2ccccc2)CC1` (centres unmarked) [Example 47, 8-[3-(4-Diphenylmethylpiperazine-1-yl)-2-hydroxypropoxy]isoquinoline], in that order: 879% and 322%.
For `OC(COc1nccc2ccccc12)CN1CCN(C(c2ccccc2)c2ccccc2)CC1` (centres unmarked) [Example 48, 1-[3-(4-Diphenylmethylpiperazine-1-yl)-2-hydroxypropoxy]isoquinoline], in that order: 798% and 215%.
For `OC(COc1cccc2cccnc12)CN1CCN(C(c2ccccc2)c2ccccc2)CC1` (centres unmarked) [Example 49, 8-[3-(4-Diphenylmethylpiperazine-1-yl)-2-hydroxypropoxy]-quinoline], in that order: 612% and 213%.
Regarding `OC(COc1cccc2nccnc12)CN1CCN(C(c2ccccc2)c2ccccc2)CC1` (centres unmarked) [Example 50, 5-[3-(4-Diphenylmethylpiperazine-1-yl)-2-hydroxypropoxy]quinoxaline], the activity at 10 µg/mL was 668%. The activity at 1 µg/mL (compound 1 μg/ml) came out at 559%.
For `OC(COc1cccc2ncncc12)CN1CCN(C(c2ccccc2)c2ccccc2)CC1` (centres unmarked) [Example 51, 5-[3-(4-Diphenylmethylpiperazine-1-yl)-2-hydroxypropoxy]quinazoline], in that order: 798% and 534%.
With `OC(COc1cccc2ncccc12)CN1CCN(C(c2ccccc2)c2ccncc2)CC1` (centres unmarked) [Example 52, 5-(3-[4-((4-Pyridyl) -phenylmethyl)piperazine-1-yl]-2-hydroxypropoxy)quinoline], the activity at 10 µg/mL amounted to 910%. The activity at 1 µg/mL (compound 1 μg/ml) amounted to 379%.
For `Cc1cc(C(F)(F)F)nc2cccc(OCC(O)CN3CCN(C4c5ccccc5CCc5ccccc54)CC3)c12` (centres unmarked) [Example 54, 2-Trifluoromethyl-4-methyl-5-[3-(4-(dibenzosuberane-5-yl)piperazine-1-yl)-2-hydroxypropoxy]quinoline], in that order: 777% and 253%.
For `Cc1cc(C(F)(F)F)nc2cccc(OCC(O)CN3CCN(C(c4ccccc4)c4ccccc4)CC3)c12` (centres unmarked) [Example 56, 2-Trifluoromethyl-4-methyl-5-[3-(4-diphenylmethylpiperazine-1-yl)-2-hydroxypropoxy]quinoline], in that order: 735% and 321%.
For `OC(CNCCNC1c2ccccc2CCc2ccccc21)COc1cccc2ncccc12` (centres unmarked) [Example 62, 5-[3-(N'-(Dibenzosuberane-5-yl)ethylenediamino)-2-hydroxypropoxy]quinoline], under “compound 1 μg/ml”, the activity at 1 µg/mL came out at 525%.
Still for that read-out and setting: with `CN(CCN(C)C1c2ccccc2CCc2ccccc21)CC(O)COc1cccc2ncccc12` (centres unmarked) [Example 63] the figure was 773%.
For the molecule `CSc1ccc2c(OCC(O)CN3CCN(C4c5ccccc5CCc5ccccc54)CC3)cccc2n1` (centres unmarked) [Example 64, 2-Methylthio-5-[3-(4-(dibenzosuberane-5-yl)piperazine-1-yl)-2-hydroxypropoxy]quinoline], the activity at 10 µg/mL came out at 900%. Further, where the note is “compound 1 μg/ml”, the activity at 1 µg/mL amounted to 425%.
Taken in the same sequence, the figures for `CSc1ccc2c(OCC(O)CN3CCN(C(=O)C(c4ccccc4)c4ccccc4)CC3)cccc2n1` (stereo not drawn) [Example 65, 2-Methylthio-5-[3-(4-(α,α-diphenylacetyl)piperazine-1-yl)-2-hydroxypnopoxy]quinoline] were 985% and 297%.
Turning to `Cc1cc(C)c2c(OCC(O)CN(C)CCN(C)C3c4ccccc4CCc4ccccc43)cccc2n1` (centres unmarked) [Example 66, 2,4-Dimethyl-5-[3-(N,N'-dimethyl-N'-(dibenzosuberane-5-yl)ethylenediamino)-2-hydroxypropoxy]quinoline], the activity at 1 µg/mL (compound 1 μg/ml) came to 488%.
For the molecule `Cc1cc(C)c2c(OCC(O)CN3CCC(=C(c4ccccc4)c4ccccc4)CC3)cccc2n1` (centres unmarked) [Example 67, 2,4-Dimethyl-5-[3-(4-diphenylmethylenepiperizine-1-yl)-2-hydroxypropoxy]quinoline], the activity at 1 µg/mL (compound 1 μg/ml) amounted to 730%.

The values are drawn from patent US5405843A, “Quinoline derivatives” (Mitsui Toatsu Chemicals, Incorporated, priority 1988, dated 1995).
